Data from patent US20040034099A1, “Pharmaceutical composition” (priority 2002, published 2004).

Experiment: Excipient screen (fillers, disintegrants, glidants, lubricants): tablets evaluated at accelerated conditions
Type: physicochemical
Conditions: tablets at accelerated conditions (40° C./75% RH); for filler the active ingredient is compatible with: physical characteristics and content of active ingredient
Protocol: Experiments to screen fillers, disintegrants, glidants and lubricants were conducted for the composition according to the present invention. Tablets were evaluated for physical characteristics and content of active ingredient at accelerated conditions (40° C./75% RH). The assay values were analysed statistically. […] Of all lubricants examined, chlorambucil was most compatible with stearic acid.

| Structure (SMILES) | lubricant the active ingredient is most compatible with (of all lubricants examined) | filler the active ingredient is compatible with |
| --- | --- | --- |
| O=C(O)CCCc1ccc(N(CCCl)CCCl)cc1 [chlorambucil, 4-[bis(2-chloroethyl)amino]-benzenebutanoic acid] | stearic acid | a mixture of anhydrous lactose and microcrystalline cellulose |
| N[C@@H](Cc1ccc(N(CCCl)CCCl)cc1)C(=O)O [melphalan, 4-[bis(2-chloroethyl)amino]-L-phenylalanine] | – | microcrystalline cellulose |
